The record followed here is US5728829A, “Process of preparing benzodiazepine compounds useful as antagonists of CCK or of gastrine” (Ferring-Research Limited, priority 1993, dated 1998).

Broadly, the pIC50 is the IC50 on a negative log10 scale, so that one unit is a factor of ten. By ED50 is commonly meant the midpoint of the dose-response relation.

In assay [1] the target is T1, CCK-B receptor (Rattus norvegicus, UniProt P30553).
T1 construct: the whole brain was immediately excised from each of the rats and homogenized; from tissue; host or cells: SD rat whole brain membranes
T1 sequence (P30553 1-452): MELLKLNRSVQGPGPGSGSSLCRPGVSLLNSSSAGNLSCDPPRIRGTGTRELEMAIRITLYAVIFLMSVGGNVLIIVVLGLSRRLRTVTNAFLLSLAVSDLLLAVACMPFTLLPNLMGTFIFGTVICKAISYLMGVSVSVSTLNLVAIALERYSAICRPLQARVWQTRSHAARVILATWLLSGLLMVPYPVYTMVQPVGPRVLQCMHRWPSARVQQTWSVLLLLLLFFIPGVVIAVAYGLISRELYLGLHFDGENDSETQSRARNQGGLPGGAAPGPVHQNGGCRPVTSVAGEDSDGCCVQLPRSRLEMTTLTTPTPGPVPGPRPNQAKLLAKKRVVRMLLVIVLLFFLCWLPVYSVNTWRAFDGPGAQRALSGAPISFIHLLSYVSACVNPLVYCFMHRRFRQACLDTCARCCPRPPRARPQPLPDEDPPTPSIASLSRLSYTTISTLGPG
The assay is described as follows: Measurement of binding affinity for CCK-B receptors ([125I]BH-CCK-8, rat brain membranes). Set-up: species or system SD rat.
Protocol: About 100 SD rats were decapitated without anaesthesia, the whole brain was immediately excised from each of the rats and homogenized in 10-fold volume of 0.32M aqueous solution of sucrose by the use of a Teflon-coated homogenizer, the homogenate thus obtained was centrifuged for ten minutes at 900 G by the use of a cooled centrifuge, and the supernatant was further centrifuged for 15 minutes at 11500 G. The precipitate thus obtained was dispersed in 50 mM Tris-HCl buffer (pH 7.4) containing 0.08% Triton X-100, this suspension was allowed to stand for 30 minutes and again centrifuged for 15 minutes at 11500 G, the precipitate thus obtained was washed twice with 5 mM Tris-HCl buffer and twice with 50 mM Tris-HCl buffer in that order with centrifugal separation, the washed precipitate was suspended in 50 mM Tris-HCl buffer, and the suspension thus obtained was stored at -80° C. until the membrane preparation was required.
The membrane preparations were warmed to room temperature, diluted with 10 mM HEPES buffer (containing 130 mM NaCl, 5 mM MgCl2, 1 mM EGTA and 0.25 mg/ml bacitracin; pH 6.5) and incubated at 25° C. for 120 minutes in the presence of [^125 I]BH-CCK-8 and the test compound, then separated by suction filtration. Non-specific binding was determined in the presence of 1 μM CCK-8. The amount of labelled ligand bound to the receptor was measured by the use of a γ-counter, IC50 values were determined, being that concentration of test compound required to inhibit specific binding by 50%.

Assay [2] addresses T2, CCK-A receptor (Rattus norvegicus, UniProt P30551).
T2 construct: The pancreas of an SD rat was homogenized; from tissue; host or cells: SD rat pancreas membranes
T2 sequence (P30551 1-444): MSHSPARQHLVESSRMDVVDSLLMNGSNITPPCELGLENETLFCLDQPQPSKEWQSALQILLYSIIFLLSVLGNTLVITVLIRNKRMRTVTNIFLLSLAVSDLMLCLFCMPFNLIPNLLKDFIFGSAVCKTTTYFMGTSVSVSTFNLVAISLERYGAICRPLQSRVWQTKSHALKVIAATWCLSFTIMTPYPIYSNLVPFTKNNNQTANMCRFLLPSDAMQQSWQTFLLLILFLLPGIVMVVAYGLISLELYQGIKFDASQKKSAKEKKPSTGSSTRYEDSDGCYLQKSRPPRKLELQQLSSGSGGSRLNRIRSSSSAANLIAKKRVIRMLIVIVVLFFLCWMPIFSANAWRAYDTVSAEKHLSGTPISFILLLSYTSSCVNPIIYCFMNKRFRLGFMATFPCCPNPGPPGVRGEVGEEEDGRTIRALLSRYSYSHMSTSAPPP
The assay is described as follows: Selectivity for the CCK-B receptor by comparison with binding to the CCK-A receptor in rats ([3H]L-364,718, pancreas membranes). The note with it: table 2; for A/B Ratio: IC50 (CCK-A)/IC50 (CCK-B): higher value = better CCK-B selectivity; for pIC50: rat pancreas membranes, [3H]L-364,718, 37 °C, 30 min, read-out: Receptor binding affinity IC50, CCK-A. Set-up: species or system SD rat. The procedure:
Determination of selectivity for the CCK-B receptor by comparison with binding to the CCK-A receptor in rats
The pancreas of an SD rat was homogenized in a 20-fold volume of 50 mM Tris-HCl buffer (pH 7.7) by the use of a Polytrone-type homogenizer, the homogenate was twice centrifuged for 10 minutes at 50000 G by the use of an ultra-centrifuge, the precipitate thus obtained was suspended in a 40-fold volume of 50 mM Tris-HCl buffer (containing 0.2% BSA, 5 mM MgCl2, 0.1 mg/ml bacitracin and 5 mM DTF; pH 7.7), and the suspension was stored at -80° C. until the membrane preparations were required.
The membrane preparations were then warmed to room temperature, diluted 1:10 with the buffer and incubated at 37° C. for 30 minutes in the presence of [^3 H]L-364,718 and the test compound then separated by suction filtration. Non-specific binding was determined in the presence of 1 μM L-364,718.
A high affinity for the CCK-A receptor in a CCK-B/gastrin antagonist is thought to be undesirable as it may lead to side-effects such as cholestasis and gall stone formation during therapy. Therefore it is preferable for the therapeutic agent to be selective for the CCK-B receptor. This selectivity is expressed by the ratio IC50 (CCK-A)/IC50 (CCK-B); the higher the value of this ratio the better is the selectivity.

In assay [3] the test system is pentagastrin-stimulated gastric acid secretion. Nature of the assay: Measurement of inhibition of pentagastrin-stimulated gastric acid secretion in rat. It counts as in vivo. The note with it: intravenous; for % Inhibition (maximum inhibition of gastric acid secretion): at 0.1 μmol/kg, mean for 3-5 animals; for ED50: read-out: ED50 (dose reducing secreted gastric acid to 50% of the maximum level), table 3, "Relative ED50 values", anaesthetised rat, pentagastrin 15 μg/Kg/hr. The text has this:
Measurement of inhibition of pentagastrin-stimulated gastric acid secreation in rat
A cannula was inserted into the trachea of a rat anaesthetised with urethane (intraperitoneally administered, 1.25 g/Kg), its abdominal wall was incised to expose the gastric and duodenal portions, and a polyethylene cannula was set in the anterior stomach after ligation of the cardia. The duodenum was then subjected to slight section, a polyethylene cannnula was inserted from the incised portion toward the stomach, and the pylorus was ligated to fix the cannula.
Physiological saline (with pH adjusted to 7.0) was perfused from the anterior stomach toward the pylorus at a rate of 3 ml/min, and the gastric-acid secreation was measured by continuous titration of the perfusate by the use of a pH-stat (AUT-201; product of Toa Electronics, Ltd.). The continuous titration was carried out by using 25 mM NaOH solution until the pH reached 7.0, and the result was expressed as the amount of gastric acid secreted for every 10 minutes (μEq /10 min.). Pentagastrin was intravenously administered at a rate of 15 μg/Kg/hr.
The secretion of gastric acid increased upon administration of pentagastrin, reaching the maximum level after 60 minutes and stably maintaining this level after that.

The mark [4] stands for this setting: table 1, rat brain membranes, [125I]BH-CCK-8, 25 °C, 120 min, read-out: IC50 (CCK-B receptor binding).
The mark [5] stands for this setting: table 2, rat brain membranes, [125I]BH-CCK-8, read-out: Receptor binding affinity IC50, CCK-B.

pIC50: −log10 of the molar value. Where two headings read alike, the source gives them in different places.

In the case of `CN(C)c1cccc(NC(=O)NC2N=C(c3nccn3C)c3ccccc3N(CC(=O)C(C)(C)C)C2=O)c1` (racemic) [Example 2, N-((3RS)-1-tert-Butylcarbonylmethyl-2,3-dihydro-2-oxo-5-(2-(1-methyl)imidazolyl)-1H-1,4-benzodiazepin-3-yl)-N'-(3-dimethylaminophenyl)urea], in assay [1], the pIC50 was 8.68. In assay [2], the “A/B Ratio: IC50 (CCK-A)/IC50 (CCK-B)” value worked out at 238 and the pIC50 is 6.31. Besides, the “% Inhibition (maximum inhibition of gastric acid secretion)” value (“% Inhibition” below) in assay [3] worked out at 47.4%.
As for `CNc1cccc(NC(=O)NC2N=C(c3ccccn3)c3ccccc3N(CC(=O)C(C)(C)C)C2=O)c1` (racemic) [Example 26, N-((3RS)-1-tert-Butylcarbonylmethyl-2,3-dihydro-2-oxo-5-(2-pyridyl)-1H-1,4-benzodiazepin-3-yl)-N'-(3-(methylamino)phenyl)urea], in assay [1] (setting [4]), the pIC50 is 8.85.
Take `Cc1cccc(NC(=O)NC2N=C(c3cnccn3)c3ccccc3N(CC(=O)C(C)(C)C)C2=O)c1` (racemic) [Example 5, N-((3RS)-1-tert-Butylcarbonylmethyl-2,3-dihydro-2-oxo-5-(2-pyrazinyl)-1H-1,4-benzodiazepin-3-yl)-N'-(3-methylphenyl)urea]: in assay [3], the “% Inhibition” value was found to be 55.4%.
Compound `CN(C)c1cccc(NC(=O)NC2N=C(c3ncc[nH]3)c3ccccc3N(CC(=O)C(C)(C)C)C2=O)c1` (racemic) [Example 8B, N-((3RS)-1-tert-Butylcarbonylmethyl-2,3-dihydro-5-(2-imidazolyl)-2-oxo-1H-1,4-benzodiazepin-3-yl)-N'-(3-dimethylaminophenyl)urea] had a pIC50 in assay [1] of 7.26.
For `Cc1cccc(NC(=O)NC2N=C(c3nccn3C)c3ccccc3N(CC(=O)C(C)(C)C)C2=O)c1` (racemic) [Example 1, N-((3RS)-1-tert-Butylcarbonylmethyl-2,3-dihydro-2-oxo-5-(2-(1-methyl)imidazolyl)-1H-1,4-benzodiazepin-3-yl)-N'-(3-methylphenyl)urea], the “A/B Ratio: IC50 (CCK-A)/IC50 (CCK-B)” value in assay [2] was 187. In addition, in assay [3], the “% Inhibition” value is 48.9%.
Consider `CN(C)c1cccc(NC(=O)N[C@@H]2N=C(c3ccccn3)c3ccccc3N(CC(=O)C(C)(C)C)C2=O)c1` [Example 22, N-((3R)-1-tert-Butylcarbonylmethyl-2,3-dihydro-2-oxo-5-(2-pyridyl)-1H-1,4-benzodiazepin-3-yl)-N'-((3-dimethylamino)phenyl)urea], for which the figures for the pIC50 in assay [1] (setting [4]), in assay [1] (setting [5]) and in assay [2] were 9.70, 9.70 and 6.95, respectively. In addition, the “A/B Ratio: IC50 (CCK-A)/IC50 (CCK-B)” value in assay [2] is listed as 565. Also, the ED50 in assay [3] was 0.011 µmol/kg.
Consider `Cc1cccc(NC(=O)N[C@@H]2N=C(c3ccccn3)c3ccccc3N(CC(=O)C(C)(C)C)C2=O)c1` [Example 42], for which, in assay [1] (setting [4]), the pIC50 is 9.36. For the same compound, the ED50 in assay [3] amounted to 0.016 µmol/kg.
Take `CNc1cccc(NC(=O)N[C@@H]2N=C(c3ccccn3)c3ccccc3N(CC(=O)C(C)(C)C)C2=O)c1` [Example 52, N(-((3R)-1-tert-Butylcarbonylmethyl-2,3-dihydro-2-oxo-5-(2-pyridyl)-1H-1,4-benzodiazepin-3-yl)-N'-3-methylaminophenyl)urea]: the results for the negative logarithm of the IC50 (pIC50) in assay [1] (setting [5]) and in assay [2] were 10.00 and 6.30, respectively. The “A/B Ratio: IC50 (CCK-A)/IC50 (CCK-B)” value in assay [2] was determined as 5020.
Compound `CN(C)c1cccc(NC(=O)NC2N=C(c3cnccn3)c3ccccc3N(CC(=O)C(C)(C)C)C2=O)c1` (racemic) [Example 6, N-((3RS)-1-tert-Butylcarbonylmethyl-2,3-dihydro-2-oxo-5-(2-pyrazinyl)-1H-1,4-benzodiazepin-3-yl)-N'-(3-dimethylaminophenyl)urea] gave a pIC50 in assay [1] of 9.66. Also, the “% Inhibition” value in assay [3] is 61.9%.
Regarding `CN(C)c1cccc(NC(=O)NC2N=C(c3nccs3)c3ccccc3N(CC(=O)C(C)(C)C)C2=O)c1` (racemic) [Example 4, N-((3RS)-1-tert-Butylcarbonylmethyl-2,3-dihydro-2-oxo-5-(2-thiazolyl)-1H-1,4-benzodiazepin-3-yl)-N'-(3-dimethylaminophenyl)urea], the pIC50 in assay [1] is 9.20; in assay [2], 6.36. In assay [2], the “A/B Ratio: IC50 (CCK-A)/IC50 (CCK-B)” value was 700. The “% Inhibition” value in assay [3] was determined as 55.2%.
For `CN(C(=O)OC(C)(C)C)c1cccc(C(=O)O)c1` [Example 50, 3-(N-tert-Butoxylcarbonyl-N-methylamino)benzoic acid], the pIC50 in assay [1] (setting [4]) is 9.06.
For the compound `Cc1cccc(NC(=O)NC2N=C(c3nccs3)c3ccccc3N(CC(=O)C(C)(C)C)C2=O)c1` (racemic) [Example 3, N-((3RS)-1-tert-Butylcarbonylmethyl-2,3-dihydro-2-oxo-5-(2-thiazolyl)-1H-1,4-benzodiazepin-3-yl)-N'-(3-methylphenyl)urea], the pIC50 is 9.10 in assay [1] and 6.36 in assay [2]. The “A/B Ratio: IC50 (CCK-A)/IC50 (CCK-B)” value in assay [2] amounted to 540. The “% Inhibition” value in assay [3] was found to be 57.6%.
